Patent publication US20250387391A1, “A SOLUBLE GUANYLAT CYCLASE ACTIVATOR FOR TREATING CHRONIC VASCULAR DYSFUNCTION” (Charité - Universitätsmedizin Berlin, priority 2022, published 2025)
Where two headings read alike, the source gives them in different places.

Experiments:
NT-proBNP = conditions: cited from earlier work
[1] = tested on: post-infectious ME/CFS patients
healthy subjects = conditions: cited from earlier work
[2] = tested on: endothelial dysfunction (ED) models; conditions: preclinical ED models and HF patients; cited from earlier work
[3] = tested on: subjects with heart failure with reduced ejection fraction (HfrEF); conditions: initial dose 2.5 mg, titrated to 10 mg at two-week intervals; cited from earlier work
[4] = in vivo; cited from earlier work
isolated sGC = conditions: cited from earlier work
platelet aggregation = conditions: via stimulation of cGMP synthesis; cited from earlier work
[5] = tested on: liver fibrosis in two rat models; conditions: cited from earlier work
[6] = in vivo; cited from earlier work; remark: listed apart in the source
patients with ADHF = conditions: intravenously administered; cited from earlier work
patient with ME/CFS = conditions: single patient, history of Giardia Lamblia infection, ME/CFS for 10 years; cited from earlier work
intraocular pressure = conditions: animal models; cited from earlier work
sGC = conditions: cited from earlier work
[7] = tested on: ZSF1 rat model of type 2 diabetes mellitus (T2DM)-induced nephropathy; conditions: cited from earlier work
[8] = preclinical species; cited from earlier work
[9] = humans; cited from earlier work
[10] = Vericiguat Pool (2.5 mg, 2.5 to 5 mg, 2.5 to 10 mg groups)

## COC(=O)Nc1c(N)nc(-c2nn(Cc3ccccc3F)c3ncc(F)cc23)nc1N [Vericiguat]
NT-proBNP; 1.25 mg
  Difference of Means vs Placebo - log scale, change in log transformed NT-proBNP from baseline to week 12: 0.0151 log [pg/mL]
  Ratio of Geometric Means vs Placebo - Back Transformed, NT-proBNP baseline to week 12: 1.015
NT-proBNP; 2.5 mg titrated at two-week intervals to 10 mg, p=0.0483
  Reduction in NT-proBNP at 12 weeks compared to placebo: greatest reduction
NT-proBNP; 2.5 mg
  Difference of Means vs Placebo - log scale, change in log transformed NT-proBNP from baseline to week 12: −0.0396 log [pg/mL]
  Ratio of Geometric Means vs Placebo - Back Transformed, NT-proBNP baseline to week 12: 0.961
NT-proBNP; 2.5 to 5 mg
  Difference of Means vs Placebo - log scale, change in log transformed NT-proBNP from baseline to week 12: −0.0731 log [pg/mL]
  Ratio of Geometric Means vs Placebo - Back Transformed, NT-proBNP baseline to week 12: 0.930
NT-proBNP; 2.5 to 10 mg
  Difference of Means vs Placebo - log scale, change in log transformed NT-proBNP from baseline to week 12: −0.2494 log [pg/mL]
  Ratio of Geometric Means vs Placebo - Back Transformed, NT-proBNP baseline to week 12: 0.779
NT-proBNP; [10]
  Difference of Means vs Placebo - log scale, change in log transformed NT-proBNP from baseline to week 12: −0.1220 log [pg/mL]
  Ratio of Geometric Means vs Placebo - Back Transformed, NT-proBNP baseline to week 12: 0.885
NT-proBNP; across vericiguat doses
  Secondary analysis: reduction of NT-proBNP at 12 weeks: dose-response relationship
NT-proBNP; pooled vericiguat group, 12 weeks
  Primary efficacy endpoint, change from baseline in log-transformed NT-proBNP vs placebo: not significantly different
[1]; 1st patient
  Cognitive function: improved
  Sensitivity to light and noise: less sensitivity to light and noise
[1]; 1st patient (ME/CFS triggered by COVID), 5 mg
  Fatigue: improved
[1]; 1st patient, 5 mg
  Activity without getting PEM: much more activity was possible without getting PEM
[1]; 2nd patient
  Quality of life, according to the patient: significantly improved
[1]; 2nd patient (postinfectious ME/CFS, Bell of 20), 2.5 mg
  Effect of treatment (mainly cognitive): only a minor positive effect
[1]; 2nd patient, 5 mg, over a period of a few weeks
  Cognitive ability: increase in cognitive ability
[1]; 2nd patient, compared to prior to treatment
  Feeling of being sick: reduced
[1]; 2nd patient, before medication about 3 days a week
  Headaches: almost completely disappeared
[1]; 2nd patient, increased from 1 h
  Ability for cognitive work without triggering PEM: more than 2 hours
[1]; 3rd patient
  Headaches: disappeared
  Muscle fasciculation: decreased
  Sensitivity to noise: improved
[1]; 3rd patient (ME/CFS triggered by COVID), 2 weeks of 5 mg
  Fatigue: improved
[1]; 3rd patient, increased from 1
  Ability to work: 2 to 3 h
[1]; human, in vivo
  Drop in blood pressure: no significant drop in blood pressure
  Effect on blood pressure: almost no effect on blood pressure
  Tolerability: very good
Healthy subjects; estimated in in vitro studies, confirmed in healthy subjects
  PK interaction profile: low
Healthy subjects; human, in vivo
  Severity of most treatment-emergent adverse events: mild-to-moderate severity
  Tolerability in clinical studies: well-tolerated
[2]
  Vascular function: restores vascular function
[3]
  Efficacy in terms of cardiovascular mortality and HF hospitalization: superior to placebo
[4]
  Risk of anemia as side effect: 1.9%

## OCc1ccc(-c2nn(Cc3ccccc3)c3ccccc23)o1 [YC-1]
Isolated sGC
  Effect on sGC when combined with NO-releasing compounds: strong synergistic effect
  sGC stimulation after oxidation or removal of the prosthetic heme moiety: loss of stimulation
Platelet aggregation
  Platelet aggregation: inhibiting platelet aggregation

## O=C(O)CCCCN(CCc1cc(F)ccc1OCc1ccc(-c2ccc(C(F)(F)F)cc2)cc1)Cc1ccc(C(=O)O)cc1 [BAY 60-2770, 4-({(4-carboxy-butyl)[2-(5-fluoro-2-{[4′-(trifluoromethyl)biphenyl-4-yl]methoxy}phenyl)ethyl]amino}methyl)benzoic acid]
[5]
  Liver fibrosis: attenuates liver fibrosis

## Fc1ccccc1Cc1nc(-c2nc(C(F)(F)F)n[nH]2)cn2ccnc12 [CY6463]
[6]
  Crossing of the blood-brain barrier: readily crosses the blood-brain barrier

## O=C(O)CCCCN(CCc1ccccc1OCc1ccc(CCc2ccccc2)cc1)Cc1ccc(C(=O)O)cc1 [Cinaciguat]
Patients with ADHF
  Hemodynamic effect: potent unloading of the heart with arterial vasodilation

## COC(=O)N(C)c1c(N)nc(-c2nn(Cc3ccccc3F)c3ncccc23)nc1N [Riociguat]
[4]
  Risk of anemia as side effect: 7.8%
Patient with ME/CFS
  Symptoms of ME/CFS: some improvement in symptoms

## Cc1cc(C2CCN(C(=O)C3CC3)CC2)ccc1NC1CCc2cccc(-c3cccc(-n4ncc(C(=O)O)c4C)n3)c21 (stereo not shown) [MGV354]
Intraocular pressure
  Intraocular pressure: significantly lowered intraocular pressure

## [N]=O [NO, nitric oxide]
sGC
  Increase of sGC activity: about 200 fold

## Cc1ccc(OCc2ccc(C(=O)N3CCCCC3)cc2C)c(-c2csc(C3CC4CCC(C3)C4C(=O)O)n2)c1 (stereo not shown) [BI 703704]
[7]
  In vivo activity: displaying in vivo activity

## OC(CNc1nc(-c2cc(-c3ccon3)n(Cc3ccccc3F)n2)ncc1F)(C(F)(F)F)C(F)(F)F [Praliciguat]
[8]
  Clearance route: mainly hepatic clearance
  Half-life: long half-life
  Tissue distribution: extensive tissue distribution
[9]
  Pharmacokinetic half-life: consistent with QD dosing
